Measured values as given in PubChem BioAssay (NCI).
Several values for one entry are separate records, joined by “and”; a condition that tells them apart may be missing. Equal entries are not always repeated.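 Results reflect a 48-hour exposure of cells in 96-well plates to compound at five concentrations. At the GI50, growth is halved. At the TGI there is no net growth.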

How the values were obtained:
Test in all cases: DTP human tumour cell line panel, 48 h
SK-MEL-2 melanoma = tested on: SK-MEL-2 melanoma
PC-3 prostate = tested on: PC-3 prostate
HCC-2998 colon = tested on: HCC-2998 colon
CCRF-CEM leukemia = tested on: CCRF-CEM leukemia
M14 melanoma = tested on: M14 melanoma
OVCAR-5 ovarian = tested on: OVCAR-5 ovarian
NCI-H226 lung = tested on: NCI-H226 lung
NCI/ADR-RES ovarian = tested on: NCI/ADR-RES ovarian
KM12 colon = tested on: KM12 colon
UACC-257 melanoma = tested on: UACC-257 melanoma

Structure (SMILES) | GI50 (SK-MEL-2 melanoma) | TGI (SK-MEL-2 melanoma) | GI50 (PC-3 prostate) | TGI (PC-3 prostate) | GI50 (HCC-2998 colon) | TGI (HCC-2998 colon) | GI50 (CCRF-CEM leukemia) | TGI (CCRF-CEM leukemia) | GI50 (M14 melanoma) | TGI (M14 melanoma) | GI50 (OVCAR-5 ovarian) | TGI (OVCAR-5 ovarian) | GI50 (NCI-H226 lung) | TGI (NCI-H226 lung) | GI50 (NCI/ADR-RES ovarian) | TGI (NCI/ADR-RES ovarian) | GI50 (KM12 colon) | TGI (KM12 colon) | GI50 (UACC-257 melanoma) | TGI (UACC-257 melanoma)
O=C1/C(=C/c2cccc([N+](=O)[O-])c2)COc2ccc(O)c(O)c21 | 2 µM | 4.35 µM | 1160 nM | 4.14 µM | 1660 nM | 3.22 µM | 335 nM | 2.43 µM | 1810 nM | 4.27 µM | 1.8 µM | 3.44 µM | 2350 nM | 8.33 µM | 2.43 µM | 18 µM | 1680 nM | 3.4 µM | 1860 nM | 4.81 µM
CCCCCCCCCCCCN1C(C)=CS/C1=C\C=C\c1scc(C)[n+]1CCCCCCCCCCCC | – | – | 1030 nM | 3.46 µM | 2110 nM | 11 µM | 1980 nM | > 100 µM | 1340 nM | 4.61 µM | 2.3 µM | 9.43 µM | 2340 nM | > 100 µM | 3.06 µM | 34.4 µM | – | – | 1720 nM | 5.68 µM
COc1cc(/C=C(/C)[N+](=O)[O-])ccc1O | 2.15 µM and 1.7 µM | 4.3 µM and 3.49 µM | 2680 nM and 2740 nM | 7.27 µM and 6.86 µM | 1770 nM and 1680 nM | 3.28 µM and 3.08 µM | 1850 nM | 4.91 µM | 1830 nM and 1850 nM | 3.79 µM and 3.6 µM | 3.47 µM and 2.66 µM | 10.1 µM and 7.96 µM | 2580 nM and 4070 nM | 6.96 µM and 14.2 µM | 3.18 µM and 3.08 µM | 11.8 µM and 10.9 µM | 2970 nM and 1930 nM | 7.52 µM and 3.75 µM | 1660 nM and 1610 nM | 3.39 µM and 3.25 µM
Oc1c(CN2CCC(N3CCOCC3)CC2)cc(Cc2cc(CN3CCC(N4CCOCC4)CC3)c(O)c3ncccc23)c2cccnc12 | 4.64 µM | 30.3 µM | 565 nM | > 100 µM | 1520 nM | 13.5 µM | 337 nM | > 100 µM | 610 nM | 17.1 µM | 2.14 µM | > 100 µM | 641 nM | 4.75 µM | 3.54 µM | > 100 µM | 428 nM | > 100 µM | 3620 nM | 16.3 µM
CN(C)CCNC(=O)c1ccc(Nc2nc3ccccc3c3occc23)cc1 | 9.71 µM | 26.6 µM | 3000 nM | 14.3 µM | 1620 nM | 3.07 µM | 3040 nM | 8.74 µM | 1700 nM | 3.15 µM | 11.8 µM | 24.6 µM | – | – | 8.92 µM | 22.6 µM | 1890 nM | 4.15 µM | – | –
C[Si](C)(C)C#CCO[Si](C)(C)C | – | > 100 µM | – | > 100 µM | – | > 100 µM | – | > 64 µM | – | > 100 µM | – | > 100 µM | – | > 100 µM | – | > 100 µM | – | > 89.3 µM | – | > 100 µM
Oc1ccc2ccccc2c1C=NCCCN=Cc1c(O)ccc2ccccc12 | 12.6 µM | 37.2 µM | 21600 nM | > 100 µM | – | – | 5260 nM | 56.5 µM | 7940 nM | 23.1 µM | 28.4 µM | 81.4 µM | 829 nM | 12.9 µM | 14.6 µM | 49.4 µM | 15100 nM | 36.2 µM | 21700 nM | > 100 µM
CC(C)C[C@H](NC(=O)[C@H](Cc1ccccc1)n1ccc(N2CCCCC2)cc1=O)B(O)O | 0.46 µM | 4.56 µM | 4190 nM | > 100 µM | 1140 nM | 3.09 µM | 429 nM | > 100 µM | 356 nM | 3.88 µM | 3.15 µM | 97.3 µM | 188 nM | 0.423 µM | 17.4 µM | > 100 µM | 1330 nM | 4.38 µM | – | –
Cc1ccc(C)c(NC(=O)C(=O)C(c2cnc3ccc([N+](=O)[O-])cc3n2)[N+](=O)[O-])c1 (stereo unspecified) | – | > 100 µM | – | > 100 µM | – | > 100 µM | – | 79.1 µM | – | > 100 µM | – | > 100 µM | – | > 100 µM | – | 63.8 µM | – | > 100 µM | – | > 100 µM
CCNC(=O)C[C@@H]1N=C(c2ccc(Cl)cc2)c2cc(OC)ccc2-n2c(C)nnc21 | 3.28 µM | > 100 µM | 3150 nM | > 100 µM | 5770 nM | > 100 µM | 7440 nM | > 100 µM | 2020 nM | > 100 µM | > 100 µM | > 100 µM | > 32800 nM | > 100 µM | > 56 µM | > 100 µM | 27100 nM | > 100 µM | 2000 nM | > 100 µM
Cc1ccc(Nc2nc(NCCO)c3ccccc3n2)cc1C | 11.3 µM | 24 µM | 4240 nM | 16.7 µM | 2440 nM | 5.96 µM | 4570 nM | 18.6 µM | – | – | 4.29 µM | 16.4 µM | 10800 nM | 22.7 µM | 7.18 µM | 20.6 µM | 8060 nM | 20.5 µM | 2140 nM | 7.37 µM
O=C(Nc1ccc(-c2nc3cc4ccccc4cc3[nH]2)cc1)c1cccc(Br)c1 | – | – | 3020 nM | 13.4 µM | 31100 nM | > 100 µM | 9550 nM | 80.4 µM | 7590 nM | 24.8 µM | 22.6 µM | 68.3 µM | 21400 nM | 50.2 µM | 15.3 µM | 58.6 µM | 7240 nM | 32.4 µM | 21000 nM | 52.3 µM
Cn1ccnc1C(=O)/C=C/c1ccc(CC(=O)Nc2ccc(Cl)cc2)cc1 | > 25 µM | > 25 µM | 1370 nM | > 25 µM | 3420 nM | > 25 µM | 1460 nM | > 25 µM | – | – | 9.97 µM | > 25 µM | 7430 nM | > 25 µM | 2.22 µM | > 25 µM | 1510 nM | > 25 µM | > 25000 nM | > 25 µM
CC(O)C1OC(O)C2OC(C)(C)OC12 (stereo unspecified) | – | > 100 µM | – | > 100 µM | – | – | – | > 100 µM | – | > 100 µM | – | > 100 µM | – | > 100 µM | – | > 100 µM | – | > 100 µM | – | > 100 µM
